According to patent US20030004214A1, “Use of rofleponide in the treatment of irritable bowel syndrome (ibs)” (priority 2000, published 2003):

Legend:
cytochrome P450 enzymes = assay: first pass metabolism / inactivation in the intestinal hepatic region; type: in vivo; settings: inactivation by cytochrome P450 enzymes in the intestinal hepatic region
oral bioavailability = type: in vivo
[1] = water solubility for dissolution distribution in intestinal fluids; type: physicochemical
[2] = treatment of irritable bowel syndrome (IBS); settings: in vivo
Procedure: For testing the effect of rofleponide, its esters and salts in post-infectious irritable bowel syndrome the intestinal neuromuscular dysfunction after acute nematode infection in mice are measured in accordance with the method described in Gasteroenterology 1997, vol. 133, p.1224-1232.

[3] = biological target: T1, glucocorticosteroid receptors (Homo sapiens, UniProt P04150); assay: affinity for and activity at glucocorticosteroid receptors; type: binding; settings: compared to other very potent topical steroids
T1 sequence (P04150 1-777): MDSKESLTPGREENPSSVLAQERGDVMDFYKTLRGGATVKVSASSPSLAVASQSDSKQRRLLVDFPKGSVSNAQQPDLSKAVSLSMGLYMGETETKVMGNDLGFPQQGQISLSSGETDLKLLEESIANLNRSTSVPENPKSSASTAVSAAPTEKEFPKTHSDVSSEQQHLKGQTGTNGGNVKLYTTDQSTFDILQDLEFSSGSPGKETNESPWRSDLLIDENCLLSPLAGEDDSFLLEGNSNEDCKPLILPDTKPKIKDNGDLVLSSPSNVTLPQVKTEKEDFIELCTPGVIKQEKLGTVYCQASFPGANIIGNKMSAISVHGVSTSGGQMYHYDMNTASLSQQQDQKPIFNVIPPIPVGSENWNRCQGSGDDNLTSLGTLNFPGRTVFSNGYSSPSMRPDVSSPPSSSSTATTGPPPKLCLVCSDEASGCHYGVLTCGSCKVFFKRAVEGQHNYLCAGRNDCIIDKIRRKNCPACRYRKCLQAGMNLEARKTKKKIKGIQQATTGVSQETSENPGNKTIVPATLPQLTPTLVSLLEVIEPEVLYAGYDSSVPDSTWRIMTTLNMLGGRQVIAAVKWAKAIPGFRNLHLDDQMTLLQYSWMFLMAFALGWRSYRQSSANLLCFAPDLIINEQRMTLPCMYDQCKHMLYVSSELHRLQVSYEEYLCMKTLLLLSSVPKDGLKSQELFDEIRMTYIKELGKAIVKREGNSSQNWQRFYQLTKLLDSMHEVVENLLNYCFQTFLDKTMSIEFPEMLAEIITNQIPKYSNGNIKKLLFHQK

For CCC[C@@H]1O[C@@H]2C[C@H]3[C@@H]4C[C@H](F)C5=CC(=O)CC[C@]5(C)[C@@]4(F)[C@@H](O)C[C@]3(C)[C@]2(C(=O)CO)O1 [rofleponide, (22R)-16-alpha, 17 alpha-butylidenedioxy-6-alpha, 9alpha-difluoro-11beta,21-dihydroxypregn-4-ene-3,20-dione], the first pass metabolism (cytochrome P450 enzymes) was “at least 99%”, the oral bioavailability (oral bioavailability) was ≤ 1% and the water solubility [1] was “sufficient”. The “effect in the treatment of irritable bowel syndrome (IBS)” value [2] was “effective” and the “affinity for and activity at glucocorticosteroid receptors” value [3] was “very high”.
